The source of these data is publication PMC9781117, “New 5-Aryl-1,3,4-Thiadiazole-Based Anticancer Agents: Design, Synthesis, In Vitro Biological Evaluation and In Vivo Radioactive Tracing Studies” (Pharmaceuticals, 2022).

Values after ≈ are worked out from the molar mass of the structure shown.

For experiment [1], the system named is MCF-7 breast adenocarcinoma cells. As to the kind of experiment: MTT cytotoxicity assay, MCF-7. The conditions noted are these: for IC50: Homo sapiens, MCF7, MTT, 48 h, means ± SD of three independent experiments; for SI Values MCF-7: selectivity index, MCF-7 over normal Vero cells. Format: cell-based, human. The method, then:
(§1) The in vitro cytotoxicity of the synthesized 1,3,4-thiadiazole derivatives against breast adenocarcinoma cells (MCF-7) and human hepatocellular carcinoma (HepG2) cell lines were evaluated by the MTT assay, using 5-Fluorouracil (5-FU) as a positive control.
(§2) Human hepatocellular carcinoma (HepG2) cells and breast adenocarcinoma (MCF7) cells were purchased from the American Type Culture Collection (ATCC, USA). Under 37 °C with 5% CO2 in a humid incubator, cells were propagated using RPMI supplemented with 10% fetal bovine serum (FBS) and 1% v/v penicillin-streptomycin.
(§3) According to Tim Mosmann’s approach, an MTT assay was performed to assess the antiproliferative properties of the compounds. In short, HepG2 or MCF7 cells (0.5 × 105) were grown in flat-bottom 96-well microplates in 180 μL/well RPMI media supplemented with 10% fetal bovine serum, 2μmol/mL L-glutamine, 250 ng/mL fungizone, and 100 units/mL penicillin-streptomycin solutions at 37 °C in a CO2 incubator. Following incubation, 180 μL/well of the new serum-free medium was added to each well after the old media had been withdrawn. After that, cells were exposed to 20 μL of various concentrations of the compounds (50–0.75 μg/mL) and were incubated for 48 h at 37 °C in a humidified 5% CO2 environment. The MTT solution (20 µL/well) was added and incubated for a further 4 h. The plate was agitated at room temperature while acidified isopropanol (160 μL/well) was added to dissolve the formazan crystals. The absorbance at 570 nm was then determined photometrically using the microplate ELISA reader (FLUOstar Omega, BMG, Labtech, Germany). Graph-Pad PRISM version 6 was used to determine the IC50 for each compound.
For orientation: Tetrazolium dyes change colour on reduction, which living cells bring about.

Experiment [2] relates to HepG2 human hepatocellular carcinoma cells. As to the kind of experiment: MTT cytotoxicity assay, HepG2. It is filed as cell-based. Conditions: for IC50: Homo sapiens, MTT, 48 h, means ± SD of three independent experiments; for SI Values HepG2: selectivity index, HepG2 over normal Vero cells. The method, then:
as §1, §2, §3

Experiment [3] deals with normal mammalian Vero cells. As to the kind of experiment: Cytotoxicity against normal Vero cells. Format: cell-based. The conditions noted are these: Chlorocebus sabaeus.
The test system of experiment [4] is HepG2 cells. As to the kind of experiment: AO/EB fluorescent stain, apoptotic and necrotic cells, HepG2. Format: cell-based, human. The conditions noted are these: HepG2, IC50 concentration, 48 h, vs untreated control cells. The method, then: (§4) Morphologically, there are three different modes of cell death: apoptosis, autophagy, and necrosis (types I, II, and III, respectively).
(§5) Fluorescence labeling with acridine orange/ethidium bromide (AO/EB) was used to determine the ratio between apoptosis and necrosis to evaluate the mode of cell death. HepG2 and MCF-7 cells were seeded in six-well plates with DMEM media supplemented with 10% FBS and allowed to settle overnight at 37 °C with 5% CO2 in a humidified incubator. […] 5-FU was used as a positive standard for both cell lines. After incubation, cells were collected by trypsinization and stained using a dye solution of AO and EB in PBS (1:1) for 20 min. The cells were examined using fluorescence microscopy. Each sample had at least 500 counted cells, and the percentage of apoptotic or necrotic cells was determined by […] the number of apoptotic or necrotic cells by the total number of cells counted by 100. The experiment was performed three times in triplicate.

Experiment [5] deals with HepG2 cells. As to the kind of experiment: Annexin V-FITC/PI flow cytometric apoptosis analysis, HepG2. It is filed as cell-based, human. The conditions noted are these: HepG2, IC50 concentration, 48 h. From the text:
(§6) Propidium iodide (PI) and annexin-V-FITC were used in a flow cytometric investigation on HepG2 and MCF-7 cells to better understand the manner of cell death caused by 4e and 4i, respectively. […] Apoptosis evasion is one of the hallmarks of cancer progression because the loss of apoptosis control prolongs cancer cell survival and allows for the accumulation of mutations that can promote angiogenesis and cell proliferation, disrupt differentiation, and increase invasiveness throughout tumor progression, thus one of the key purposes of apoptosis is to prevent cancer.
(§7) The apoptotic activity of compounds 4e and 4i was measured using the annexin V fluorescein isothiocyanate (FITC)/propidium iodide (PI) apoptosis detection kit (BioVision, USA, Catalog #: K101-25) following the manufacturer’s instructions. […] Cells were collected by trypsinization, washed twice using PBS and then 1 × 10^5 cells were resuspended in PBS and stained for 15 min at room temperature in the dark with 5 µL Annexin V-FITC and 5 µL PI in 1x binding buffer. Annexin V-FITC binding was analyzed by a BD FACS Calibur flow cytometry (Ex = 488 nm; Em = 530 nm) using a FITC signal detector (FL1) and PI staining by the phycoerythrin emission signal detector (FL2).
(In general: In flow cytometry, cells or beads pass a laser one at a time.)

Experiment [6] has as its system HepG2 cells. The experiment can be described thus: Cell cycle analysis by flow cytometry (PI), HepG2. Format: cell-based, human. Conditions: HepG2, IC50 concentration, 48 h, vs control. The method, then:
(§8) The cell cycle is made up of several intricately linked processes that enable the cell to develop and multiply. In cancer, the genetic and epigenetic abnormalities in the cell cycle-related genes result in an unchecked proliferation of mutated cells and alteration of cell cycle progression. For further investigation of the inhibitory effects of 4e and 4i compounds on the proliferation of HepG2 and MCF-7 cells, respectively, we examined the cell cycle distribution and DNA content after 48 h of the treatment. […] Consequently, the arrest in the G2/M phase mediates apoptosis via a mitochondrial apoptotic pathway.
(§9) Immediately after incubation, trypsinization was used to collect the cells, which were then washed twice with ice-cold PBS before being fixed in 70% (v/v) ethanol at […], re-suspended with 0.1 mg/mL RNase, stained with […] propidium iodide (PI), and incubated for 1 h. The DNA contents of the cells were then analyzed by flow cytometry using an FL2 (λex/em 493/636 nm) signal detector (Abcam, UK, ab139418).

In experiment [7] the test system is Bax/Bcl-2 ratio in HepG2 cells. As to the kind of experiment: ELISA Bax/Bcl-2 ratio, HepG2. It is filed as cell-based, human. The conditions noted are these: HepG2, IC50, 48 h, compared to control and 5-FU treated cells. From the text: (§10) The overexpression of antiapoptotic proteins, such as Bcl-2, and the underexpression of proapoptotic proteins, such as Bax, are two common ways that the apoptotic pathway is suppressed in cancer. […] Therefore, a rise in Bax expression and a decrease in Bcl-2 can trigger the apoptotic process and eradicate cancer cells. […] This in turn activates the intrinsic pathway of apoptosis; thus, we next examined their effect on caspase 9 levels. Caspases (cysteine aspartyl-specific proteases), a class of cysteine proteins that cleave target proteins, play a role in executing apoptosis. […] Moreover, we evaluated the effect of the two compounds on the vascular endothelial growth factor VEGF expression. VEGF is one of the pro-angiogenic proteins; upon binding to VEGF receptors in the endothelial cells, it activates phosphorylation, causing increased angiogenesis and resulting in abnormal vasculature in the tumor tissue.
(§11) The protein levels of Bax, Bcl2, caspase 9, and VGEF were estimated using an ELISA assay. […] Cells from each group were scraped off and washed with PBS and then cell pellets were collected from each flask. […] The supernatants were then used for ELISA assays in accordance with the manufacturer’s instructions for the ELISA kits (Sunlong Biotech, China), and absorbance and calculations were carried out using an ELISA reader (FLUOstar Omega, BMG, Labtech, Germany).

Another experiment has as its system caspase 9 in HepG2 cells. As to the kind of experiment: ELISA caspase 9 level, HepG2. Format: cell-based, human. The conditions noted are these: HepG2, IC50, 48 h.
From the text: as §10, §11
In general terms: An ELISA detects its analyte on a solid surface through an enzyme-linked reagent.

The next experiment relates to VEGF in HepG2 cells. The experiment can be described thus: ELISA VEGF level, HepG2. It is filed as cell-based, human. The conditions noted are these: HepG2, IC50, 48 h, compared to control and 5-FU treated cells.
From the text: as §10, §11

In experiment [8] the test system is MCF-7 cells. As to the kind of experiment: AO/EB fluorescent stain, apoptotic and necrotic cells, MCF-7. Conditions: MCF-7, IC50 concentration, 48 h, vs untreated control cells. Format: cell-based, human. The method, then:
as §4, §5

In experiment [9] the test system is MCF-7 cells. As to the kind of experiment: Annexin V-FITC/PI flow cytometric apoptosis analysis, MCF-7. Format: cell-based, human. The conditions noted are these: MCF-7, IC50 concentration, 48 h.
From the text: as §6, §7

Experiment [10] deals with MCF-7 cells. As to the kind of experiment: Cell cycle analysis by flow cytometry (PI), MCF-7. Format: cell-based, human. Conditions: MCF-7, IC50 concentration, 48 h, vs control, p < 0.05. The method, then:
as §8, §9

Experiment [11] has as its system Bax/Bcl-2 ratio in MCF-7 cells. The experiment can be described thus: ELISA Bax/Bcl-2 ratio, MCF-7. It is filed as cell-based, human. Conditions: MCF-7, IC50, 48 h, compared to control and 5-FU treated cells.
From the text: as §10, §11

The next experiment relates to caspase 9 in MCF-7 cells. As to the kind of experiment: ELISA caspase 9 level, MCF-7. It is filed as cell-based, human. Conditions: MCF-7, IC50, 48 h.
From the text: as §10, §11

A further experiment concerns VEGF in MCF-7 cells. As to the kind of experiment: ELISA VEGF level, MCF-7. Conditions: MCF-7, IC50, 48 h, compared to control and 5-FU treated cells. Format: cell-based, human.
From the text: as §10, §11

A further experiment deals with lung A549 cancer cells. Also on record: method as in PMID 31313595. Conditions: cited from earlier work.
In experiment [12] the test system is cervical HeLa cancer cells. Also on record: method as in PMID 31313595. Conditions: cited from earlier work.
Experiment [13] concerns breast cancer MCF-7 cells. Also on record: method as in PMID 31313595. The conditions noted are these: cited from earlier work.

Broadly, the IC50 is the point on the concentration scale where inhibition reaches its midpoint. With `CCOc1ccccc1N1CCN(CC(=O)Nc2nnc(-c3ccc(Cl)cc3)s2)CC1` [Compound 4e, N-(5-(4-Chlorophenyl)-1,3,4-Thiadiazol-2-yl)-2-(4-(2-Ethoxyphenyl)Piperazin-1-yl)Acetamide], the IC50 in experiment [1] amounted to 5.36 ± 0.36 mg/L (≈ 11.7 µM); in [2] (HepG2), 3.13 ± 0.2 mg/L (≈ 6.83 µM); in experiment [3], 154 ± 32.2 mg/L (≈ 337 µM). Further, the “SI Values MCF-7” value in [1] turned out to be 28.79. Besides, in experiment [2] (HepG2, 4b vs 4a, 4e vs 4f), the “fold increase in efficacy relative to parent analogue” value stood at 12 fold. For the same compound, the “SI Values HepG2” value in experiment [2] came to 49.20. For the same compound, the “apoptosis and necrosis (AO/EB stain)” value in the experiment on HepG2 cells [4] is “significantly enhanced apoptosis and necrosis”. For the same compound, in the experiment on HepG2 cells [5], the “main mode of cell death (annexin-V/PI)” value is given as “apoptosis”. In the experiment on HepG2 cells [5] (vs untreated cells), the “total cell death (annexin-V/PI)” value was “induced significant total cell death”. Also, the cell cycle arrest entry in the experiment with HepG2 cells [6] is “significantly arrested HepG2 cells in the S phase”. Moreover, in [7], the Bax/Bcl-2 ratio entry is “significant increase”. The “caspase 9 level” value in the experiment on caspase 9 in HepG2 cells is reported as “significantly enhanced”. For the same compound, the VEGF level result in the experiment on VEGF in HepG2 cells is reported as “significantly suppressed”.

Regarding `O=C(CN1CCC(Cc2ccccc2)CC1)Nc1nnc(-c2ccc(Cl)cc2)s1` [Compound 4i, 2-(4-Benzylpiperidin-1-yl)-N-(5-(4-Chlorophenyl)-1,3,4-Thiadiazol-2-yl)Acetamide], the IC50 in experiment [1] came out at 2.32 ± 0.21 mg/L (≈ 5.43 µM); in [2] (HepG2), 6.51 ± 0.03 mg/L (≈ 15.2 µM); in experiment [3], 85.29 ± 0.52 mg/L (≈ 200 µM). Moreover, the “SI Values MCF-7” value in [1] turned out to be 36.70. In addition, in [2], the “SI Values HepG2” value worked out at 13.10. In addition, in the experiment on MCF-7 cells [8], the “apoptosis and necrosis (AO/EB stain)” value was “significantly enhanced apoptosis and necrosis”. For the same compound, the “main mode of cell death (annexin-V/PI)” value with MCF-7 cells [9] is given as “apoptosis”. The “total cell death (annexin-V/PI)” value with MCF-7 cells [9] (vs untreated cells) is recorded as “induced significant total cell death”. Also, the cell cycle arrest result in the experiment with MCF-7 cells [10] is reported as “induced a significant cell growth arrest for MCF-7 cells at the G2/M phase”. Further, the Bax/Bcl-2 ratio result in experiment [11] is “significant increase”. Moreover, in the experiment with caspase 9 in MCF-7 cells, the “caspase 9 level” value is “significantly enhanced”. In addition, in the experiment with VEGF in MCF-7 cells, the VEGF level result is listed as “significantly suppressed”.

Consider `CC(C)(C)c1nc(NC(=O)CN2CCN(c3ccccc3)CC2)sc1Cc1ccc(Cl)cc1` [VII], for which the IC50 in the experiment with lung A549 cancer cells is 0.2 µM; in [12], 4.2 µM.

Turning to `CCN1CCN(CC(=O)Nc2nc(C(C)(C)C)c(Cc3ccc(Cl)cc3)s2)CC1` [VI], the IC50 in [13] is 12.5 µM.
